SMILES strings stand for the structures.

This note sets out measurements from the METLIN SMRT retention time set (Domingo-Almenara et al. 2019).

The series in a line: gradient 5% acetonitrile 3 min, to 50% in 2 min, to 85% in 15 min, held 3 min, 100 µL/min. The note with it: column: Zorbax Extend-C18 2.1 x 50 mm; eluents: water / acetonitrile, 0.1% formic acid. The gist of the method:
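Pure standards were run in mixtures of ~100 molecules by HPLC coupled to a quadrupole time-of-flight mass spectrometer. The column was a Zorbax Extend-C18 (2.1 × 50 mm, 1.8 μm) at 100 μL/min, with water and acetonitrile each containing 0.1% formic acid, in positive and negative ionization mode. Dead and dwell volumes were 40 μL and 900 μL. Retention time was taken from computationally picked adduct peaks, each manually inspected, with data collected over 3 months.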
Turning to `O=C(CSc1ccc2nnc(-c3cccs3)n2n1)NCc1ccc(F)cc1`, the RP-LC retention time was 655 s. In the case of `CC(C)C(=O)N1CCc2c([nH]c3ccccc23)C12C(=O)N(C)c1ccc(Br)cc12` (stereo not drawn) it was 976 s; in that of `O=C(Nc1cc(F)cc(F)c1)C1CCN(C(=O)c2ncn3c2COC(c2ccc(F)cc2)C3)CC1` (stereo not drawn), 858 s; in that of `COc1ccccc1NC(=O)Cn1nc2n(c1=O)CCCCC2`, 709 s.

The molecule `Cc1ccc(-c2nc3nc(C)cc(C)n3c2Nc2ccc3c(c2)OCCO3)cc1` registered an RP-LC retention time of 704 s. Turning to `O=C(Cn1cccc(-c2nc(-c3ccc(F)cc3)no2)c1=O)Nc1ccc2c(c1)OCO2`, the RP-LC retention time was 850 s. In the case of `Cc1cc(OCC(=O)Nc2cccc(C)c2C)nc(N2CCN(c3ccccc3)CC2)n1` it was 885 s; in that of `CCNc1cc(-n2cccn2)ncn1`, 666 s; in that of `CC1CCN(S(=O)(=O)c2ccc(-c3nnc(C(=O)N4CCCC4)o3)cc2)CC1`, 941 s. On to `CCN(CC)CCCNC(=O)C(C)n1c(=O)c(C(F)(F)F)nc2ccccc21` (stereo not drawn), for which the RP-LC retention time is 664 s. `CC(C)CCC(=O)N1CCN(c2nc3c(s2)CN(C)CC3)CC1`: the RP-LC retention time worked out at 597 s. In the case of `Cc1ccc(N2C(=O)CC(Nc3ccc(N4CCOCC4)cc3)C2=O)c(Br)c1` (stereo not drawn) it was 618 s; in that of `Cc1nnc(NC(=O)COc2ccc3ccccc3c2)s1`, 742 s; in that of `COc1cc(CNC(=O)c2cnc(-c3ccccc3)nc2-c2ccncc2)cc(OC)c1`, 823 s.

`Cn1cnc(S(=O)(=O)N2CCC(CCOc3ccccc3F)C2)c1` (stereo not drawn) displayed an RP-LC retention time of 828 s. In the case of `Cc1ccc(-c2nnc(Cc3nc(-c4cccnc4)no3)o2)cc1C` it was 845 s.

`O=C(c1ccnc(-c2cccs2)c1)N1CCN(c2ccccn2)CC1` yielded an RP-LC retention time of 605 s. In the case of `Cn1ccc2cc(S(=O)(=O)N3CCC(C(=O)NCc4ccccn4)CC3)ccc21` it was 641 s; in that of `CCN1C(=O)c2cccnc2Sc2cc(NC(=O)c3sccc3C)ccc21`, 842 s; in that of `CCNC(=O)CCc1nc2ccccc2n(CC(=O)Nc2cccc(C(=O)OCC)c2)c1=O`, 775 s. In the case of `Cc1noc(C)c1S(=O)(=O)N1CCCC(c2nnnn2-c2ccccc2)C1` (stereo not drawn) it was 903 s. In the case of `Cc1ccc(Nc2c(-c3cccc(Cl)c3)nc3ccccn23)cc1` it was 780 s; in that of `CCC(C(=O)NCCc1c[nH]c2ccc(Cl)cc12)n1c2ccccc2c2cnn(C)c(=O)c21` (stereo not drawn), 986 s. In turn, `COc1cccc(-c2noc(Cc3nnc(-c4cccc(C)c4)o3)n2)c1OC` yielded an RP-LC retention time of 961 s. In the case of `Cn1nccc1-c1cccc(-c2noc(-c3ccc(F)cc3)n2)c1` it was 915 s.

In turn, `CCOC(=O)C1=C(CN2CCN(c3ncccn3)CC2)NC(=O)NC1c1ccc(Cl)cc1` (stereo not drawn) gave an RP-LC retention time of 669 s.

`COc1ccc(NC(=O)Cc2c(C)nn(-c3nc(C)cs3)c2C)cc1` showed an RP-LC retention time of 873 s. In the case of `CCN1CCN(Cc2nc(Cn3ccn4nc(-c5ccc(C)c(C)c5)cc4c3=O)no2)CC1` it was 674 s; in that of `Cc1ccsc1CN1CCn2c(nnc2[C@@H]2C[C@@H](O)CN2Cc2cccnc2)C1`, 591 s; in that of `CCS(=O)(=O)c1nc2ccc(NS(=O)(=O)c3cc(F)ccc3F)cc2s1`, 854 s. `O=C(C1CCN(c2nc3ccc(-c4ccsc4)nc3s2)CC1)N1CCOCC1` had an RP-LC retention time of 826 s. In the case of `CCc1ccc(CNC(=O)Cn2c(C)nc3onc(CC)c3c2=O)cc1` it was 885 s; in that of `COc1ccc(C(=O)N2CCC3(C2)C(=O)Nc2ccc(OC)cc23)cc1` (stereo not drawn), 683 s; in that of `Cn1ccc(CN2CCN(Cc3cccc(F)c3)CC2)cc1=O`, 558 s. In the case of `Cc1nn(-c2ccccc2)c(C)c1S(=O)(=O)N1CCC(C(=O)Nc2cccc(C#N)c2)CC1` it was 958 s; in that of `Cc1cc2c(c(=O)n(-c3ccc(F)cc3)c(=O)n2CC(=O)Nc2cccc(C(C)C)c2)n1C`, 921 s; in that of `O=C(NCCc1ccccc1)C1c2ccccc2C(=O)N1Cc1ccc2c(c1)OCO2` (stereo not drawn), 865 s.

On to `C=CCn1c(NCc2cccc(Br)c2)nc2ccccc21`, for which the RP-LC retention time turned out to be 703 s. In the case of `Cc1ccc(NC(=O)Cn2c(C)nc3c(sc4nc(-c5ccccc5)ccc43)c2=O)c(C)c1` it was 1090 s; in that of `CNC(=O)C1CCN(c2nc3ccc(-c4ccc(F)cc4)nc3s2)CC1`, 824 s; in that of `CCn1c(C)c(CCC(=O)Nc2ccccc2)c(=O)n2nc(-c3ccccc3)nc12`, 847 s.

In turn, `CC1=C(c2ccc(F)cc2)S(=O)(=O)N=C1N1CCCN(C(=O)c2sccc2C)CC1` registered an RP-LC retention time of 830 s. In the case of `CC(C)OCCCNC(=O)c1nnc(-c2ccc(S(=O)(=O)N3CCCCC3)cc2)o1` it was 917 s; in that of `Cc1ccc(-c2cc(OCC(N)=O)c3cc(NC(=O)COc4ccccc4)ccc3n2)cc1`, 700 s; in that of `COC(=O)C1=CN(C2CC2)c2cc(N3CCN(c4ccc(C(C)=O)cc4)CC3)c(F)cc2S1(=O)=O`, 906 s. In the case of `Cc1ccc2c(=O)c(C(=O)N3CCCCC3)cn(CC(=O)NC3CCCCC3)c2n1` it was 731 s; in that of `COc1ccc(N2C(=O)CCC(C(=O)NCCCN3CCCCCC3)C2c2ccc(F)cc2)cc1` (stereo not drawn), 610 s.

Consider `COc1cccc(S(=O)(=O)N2CCC(c3nc(C(=O)N(C)C)c(C)o3)CC2)c1`, for which the RP-LC retention time was 794 s. In the case of `COc1ccc(-c2csc(Nc3ccccc3OC)n2)cc1` it was 1130 s. On to `CCOc1cccc(-c2noc(Cn3c(=O)n(C(C)C)c(=O)c4ccccc43)n2)c1`, for which the RP-LC retention time came out at 1190 s. In the case of `CCCOc1nc2ccccc2nc1N1CCCC(C(=O)NCc2ccccc2)C1` (stereo not drawn) it was 1180 s; in that of `CC1CCN(S(=O)(=O)c2ccc(-c3nnc(C(=O)NC4CC4)o3)cc2)CC1`, 876 s. Consider `COc1ccc(CN2CCC(C3CCNC3)CC2)c(Cl)c1OC` (stereo not drawn), for which the RP-LC retention time amounted to 556 s.

On to `CCc1nc2cccnc2n1CCN1CCN(C(=O)Nc2cc(C)ccc2C)CC1`, for which the RP-LC retention time was found to be 598 s. Molecule `O=C(CCCc1nnc2c(=O)n(-c3ccc(F)cc3)ccn12)NCCc1c[nH]c2ccccc12` came in with an RP-LC retention time of 699 s. In the case of `CCOc1ccc(Nc2nc(-c3c(C)nc4ccccn34)cs2)cc1` it was 722 s; in that of `CCOc1ccc(/C=C/C(=O)Nc2nc(-c3ccc4c(c3)NC(=O)C(C)O4)cs2)cc1OC` (stereo not drawn), 927 s. In the case of `CCCCN1C(=O)C2(NCCc3c2[nH]c2ccc(OC)cc32)c2cc(Br)ccc21` (stereo not drawn) it was 763 s.
